Experimental data as given in US5478807A, “Use of relaxin in the treatment of bradycardia” (Genentech, Inc., priority 1992, dated 1995).

Legend:
[1] = system: rat isolated atrial preparations; settings: cited from earlier work
pubic symphysis = experiment: Mouse pubic symphysis assay; settings: in vivo
Method: The concentration of relaxin was determined by amino acid analysis.

rat isolated heart = experiment: Chronotropy and inotropy in Langendorff rat isolated heart; settings: for maximum beating rate: 83 pMol
Method: Male Sprague-Dawley rats weighing 300-350 g (Charles River, Portage, Ind., USA) were anesthetized with 60 mg/kg pentobarbital sodium (Fort Dodge Laboratories, Inc., Fort Dodge, Iowa, USA) intraperitoneally. Following thoracotomy, the hearts were removed and placed into 4° C. […] Any associated lung and thymic tissue were trimmed off and the ascending aorta cannulated. The heart was then perfused at 10 ml/min with Krebs-Henseleit solution at 37° C. The perfusion pressure was constantly monitored. A small incision was made in the left atrium and a water-filled balloon (Hugo Sachs Electronik, March-Hugstetten, Germany) connected to a pressure transducer (Gould Electronics, Valley View, Ohio, USA) was placed into the left ventricle for the measurement of left ventricular developed pressure (LVDP). From this pressure, recording heart rate was electronically derived on a Grass polygraph (Quincy, Mass., USA).
In six experiments, after a 15-20 minutes stabilization period, the atria were removed. The heart rate was then allowed to stabilize at its new rate before the administration of relaxin. In three experiments, the atria were left intact.
Relaxin was administered as 50 μl bolus injections into the perfusion fluid immediately prior to entering the heart. Cumulative dose-response curves were constructed using human recombinant H2 relaxin (Genentech, Inc. South San Francisco, Calif., USA). […] Serial dilutions of both drugs were made using 0.9% (w/v) saline solution.
Statistical significance was determined by a two-tailed Student's unpaired t-test and P<0.005 was taken as significant.

[2] = Continuous subcutaneous infusion in female SHR and SD rats, uterine weight; type: in vivo, rat; settings: continuous s.c. infusion 1 or 10 ng/min
Method: Groups (4 to 9 animals in each group) of conscious, non-pregnant, Spontaneously Hypertensive (SHR) and Sprague-Dawley (SD) female rats weighing about 144-385 g each, were used in this experiment. The rats were anesthetized with ketamine hydrochloride (150 mg/kg) in order to cannulate the left iliac artery and to implant an osmotic pump. All surgery was performed under aseptic conditions. Stretched PE 50 tubing was fitted with an injection cap and flushed with heparinized saline, routed subcutaneously, exteriorized between the capsulae, and passed through a spring tether that is anchored to the skin with a nylon button. Extreme care was taken in cannulating the left iliac artery to avoid damage to collateral circulation and local innervation. An (Alzet) osmotic pump filled with relaxin or vehicle was then inserted into a subcutaneous pocket caudal to the exit point of the cannula.
All wounds were closed with suture, infiltrated with Xylocaine and coated with Betadine. […] Arterial pressure, heart rate, water intake, urine volume and vascular blood volume were measured daily throughout the duration of the experiments.
Arterial pressure and heart rate were measured directly through the arterial cannulae with standard pressure transducers (Stoelting) and strain gauge amplifiers (Stoelting). […]

[3] = system: primary human uterine cell line; experiment: cAMP bioassay in primary human uterine cell line; type: cell-based
Method: The phosphorylated relaxin was assayed for its ability to increase cAMP levels in a primary human uterine cell line. The procedure of Kramer et al. [Kramer et al., In Vitro Cell, Dev, Biol. 26, 647-656 (1990)] was modified and carried out as follows: human uterine cells at passage 15-22 were grown to confluency in Ham's F12/DMEM (1/1, v/v) medium supplemented with 10% heat-inactivated newborn calf serum, 100 unites/ml penicillin, 100 μg/ml streptomycin, 2 mM glutamine and 24 mMHEPES, pH 7.4. Cells were plated into 6-well culture plates at 10^5 cells/well and incubated overnight at 37° C. and 5% CO2 in air. The cells (at 60-80% confluency) were then washed twice with F12/DMEM-24 mMHEPES, pH 7.4 (buffer B) at room temp. […] Aliquots of the extracts were then neutralized with 0.1 N NaOH and cAMP levels were measured in a radioimmunoassay. The assay was based on the competition between cAMP and a fixed quantity of ^125 I-labeled cAMP (Du Pont) for binding to a goat anti-cAMP antibody (Cambridge). […] The radioactivity in the pellet was measured in a gamma counter, and the amount of cAMP in the samples was determined by comparison with a standard cAMP curve. A relaxin standard curve was constructed in which the cAMP concentrations (pmol/ml) determined in the radioimmunoassay were plotted as a function of stimulating relaxin concentrations (ng/ml). […]

In the case of relaxin, the “chronotropic and inotropic effects” value [1] is given as “positive chronotropic and inotropic effects”, the biological activity (pubic symphysis) is given as “biologically active” and the “transient increases in coronary perfusion pressure” value (rat isolated heart) is given as “not seen”. For the same substance, the “effect on LVDP” value (rat isolated heart; atria removed (LVDP 143±9 mmHg), 0.83 pMol) was “significantly reduced the LVDP to control levels”, the maximum beating rate (rat isolated heart; atria removed, basal 139±15 bpm) was 268±7 bpm and the maximum beating rate (rat isolated heart; intact heart preparations, basal 270±7 bpm) was 412±18 bpm. The inotropic effect (rat isolated heart; isolated heart preparations) was “no positive inotropic effects”, the “duration of chronotropic effect” value (rat isolated heart; relaxin: single bolus administration of 830 pMol) was “up to two hours” and the uterine weight [2] was “increased uterine weights”. For the same substance, the biological activity [3] was “biologically active”.
